Source: US10851067B2, “Kv7 channel activators compositions and methods of use” (Knopp Biosciences LLC, priority 2018, dated 2020)

Biological target: Kv7.2/7.3 (Homo sapiens, UniProt O43525+O43526)
Experiment: Kv7.2/7.3 Activation Assay, QPatch single concentration screen
Type: cell-based
Design: host or cells: HEK cells, tetracycline-inducible expression; key: 1.2-2.9 (+); 3-3.9 (++); >4 (+++) fold increase over baseline; O represents open channel at holding potential
Conditions: Kv7.2/Kv7.3 co-expressing HEK cells, compound concentration 3 μM, steady-state current at end of 2 s pulse to −30 mV
Experimental: Kv7.2/7.3 Activation Assay
The ability of compounds to potentiate K-currents in Kv7.2/7.3 containing HEK cells was assessed using planar patch-clamp on the QPatch automated screening platform.
The hKv7.2/7.3 cell line was obtained from Chantest (Cleveland, Ohio 44128) cat. #CT6147. These HEK cells will express the Kv7.2/7.3 ion channels when induced.
Cells were maintained in a media containing DMEM/F12; 50/50 (GIBCO cat. #11330), 10% Fetal Bovine Serum (FBS) (GIBCO cat. #26140), 100 units/mL Penicillin-Streptomycin (GIBCO cat. #15140), 0.005 mg/mL Blasticidin (INVIVOGEN cat. #ant-b1-1), 0.5 mg/mL Geneticin (GIBCO cat. #10131), 0.1 mg/mL Zeocin (GIBCO cat. #R25001). Cells used in the electrophysiology assay were maintained in a media without Blasticidin, Geneticin and Zeocin for 2 days and channel expression was induced by adding tetracycline (BIOLINE cat. #BIO-87030) at a final concentration of 1 mg/mL. Cells were grown in T-175 flask to ˜75% confluency. Currents were recorded 24 hours after channel induction.
Test compounds were prepared by performing serial dilutions on a Biomek NX^P (BECKMAN COULTER). Final dilutions were made in external recording solution with a final DMSO concentration of 0.1% DMSO. For single concentration screens each plate had 10 μM retigabine as a positive control and 0.1% DMSO as a negative control.
On the day of the experiment cells were washed with Hank's Balanced Salt Solution (HBBS) (GIBCO cat. #14175) and harvested with Tryple (GIBCO cat. #12604). Cells were then centrifuged at 2000 rpm for 5 minutes and resuspended in CHO-S-SFM (GIBCO cat. #12052) at ˜3×10^6 cells/mL. Cells were stirred for 30 minutes before experiments were started. External recording solution contained (in mM): NaCl (145), KCl (4), CaCl2 (2), MgCl2 (1), HEPES (10) and Glucose (10); pH was adjusted to 7.4 with NaOH and the osmolarity was adjusted to 300-305 mOsM with sucrose if necessary. Internal solution contained (in mM): KCl (125), KF (10), EGTA (5), Na2ATP (5), MgCl2 (3.2), HEPES (5); pH was adjusted to 7.2 with KOH and the osmolarity was adjusted to 298-302 mOsM with sucrose.
Potassium channel activity was measured on the QPatch HTX (Sophion Bioscience) using QPlates with 48-wells/plate. Each cell was taken as an independent experiment and only one compound was tested per well. Potassium channel activity was elicited by holding at −80 mV and stepping to −30 mV for 2 s followed by a 100 ms pulse to −120 mV.
Single Concentration Screen:
Baseline conditions were obtained by recording 5 sweeps in the external solution only, this was repeated for three applications of the external solution. The effect of test compounds on elicited current was then assessed by recording 5 sweeps in the presence of a 3 μM compound solution. The steady-state current at the end of the 2 s pulse to −30 mV was measured to determine the fold increase from baseline.

Kv7.2/7.3 Activity: increase over baseline in current	Structure (SMILES)
++ (3-3.9 (++))	CC(O)(CC(=O)Nc1nc2ccc(C#N)cc2n1CC1CC1)c1ccccc1 (single isomer, unassigned) [Example 428, N-(6-cyano-1-(cyclopropylmethyl)-1H-benzo[d]imidazol-2-yl)-3-hydroxy-3-phenylbutanamide]
++ (3-3.9 (++))	CC(O)(CC(=O)Nc1nc2ccc(C#N)cc2n1C1(C)CCC1)c1ccc(F)cc1F (single isomer, unassigned) [Example 430, N-(6-cyano-1-(1-methylcyclobutyl)-1H-benzo[d]imidazol-2-yl)-3-(2,4-difluorophenyl)-3-hydroxybutanamide]
++ (3-3.9 (++))	CC(O)(CC(=O)Nc1nc2cc(F)cc(C#N)c2n1C1(C)CCC1)c1ccccc1 (single isomer, unassigned) [Example 441, N-(7-cyano-5-fluoro-1-(1-methylcyclobutyl)-1H-benzo[d]imidazol-2-yl)-3-hydroxy-3-phenylbutanamide]
+ (1.2-2.9 (+))	COc1cccc2nc(NC(=O)CC(C)(O)c3ccccc3)n(C3CCC3)c12 (single isomer, unassigned) [Example 442, N-(1-cyclobutyl-7-methoxy-1H-benzo[d]imidazol-2-yl)-3-hydroxy-3-phenylbutanamide]
++ (3-3.9 (++))	CC(C)(O)c1ccc2nc(NC(=O)CC3CC(F)(F)C3(F)F)n(C3CCC3)c2c1 (single isomer, unassigned) [Example 446, N-(1-cyclobutyl-6-(2-hydroxypropan-2-yl)-1H-benzo[d]imidazol-2-yl)-2-(2,2,3,3-tetrafluorocyclobutyl)acetamide]
O	CC(O)(CC(=O)Nc1nc2ccc(C#N)cc2n1C1CCC1)c1ccccc1F (single isomer, unassigned) [Example 452, N-(6-cyano-1-cyclobutyl-1H-benzo[d]imidazol-2-yl)-3-(2-fluorophenyl)-3-hydroxybutanamide]
++ (3-3.9 (++))	CC(O)(CC(=O)Nc1nc2ccc(C#N)cc2n1C1(C)CCC1)c1ccc(F)cc1F (single isomer, unassigned) [Example 460, N-(6-cyano-1-(1-methylcyclobutyl)-1H-benzo[d]imidazol-2-yl)-3-(2,4-difluorophenyl)-3-hydroxybutanamide]
+ (1.2-2.9 (+))	CC(O)(CC(=O)Nc1nc2ccc(OC(F)F)cc2n1C1(C)CCC1)c1ccccc1 (single isomer, unassigned) [Example 463, N-(6-(difluoromethoxy)-1-(1 - methylcyclobutyl)-1H-benzo[d]imidazol-2-yl)-3-hydroxy-3-phenylbutanamide]
++ (3-3.9 (++))	CC(O)(CC(=O)Nc1nc2cc(F)cc(C#N)c2n1C1(C)CCC1)c1ccccc1 (single isomer, unassigned) [Example 465, N-(7-cyano-5-fluoro-1-(1-methylcyclobutyl)-1H-benzo[d]imidazol-2-yl)-3-hydroxy-3-phenylbutanamide]
++ (3-3.9 (++))	CC(C)(O)c1cc(F)c2nc(NC(=O)CC3CC(F)(F)C3(F)F)n(C3CCC3)c2c1 (single isomer, unassigned) [Example 466, N-(1-cyclobutyl-4-fluoro-6-(2-hydroxypropan-2-yl)-1H-benzo[d]imidazol-2-yl)-2-(2,2,3,3-tetrafluorocyclobutyl)acetamide]
+ (1.2-2.9 (+))	CC(O)(CC(=O)Nc1nc2ccc(C#N)cc2n1C1(C)CCC1)c1c(F)cccc1F (single isomer, unassigned) [Example 467, N-(6-cyano-1-(1-methylcyclobutyl)-1H-benzo[d]imidazol-2-yl)-3-(2,6-difluorophenyl)-3-hydroxybutanamide]
+ (1.2-2.9 (+))	CC(O)(CC(=O)Nc1nc2cccc(C#N)c2n1C1(C)CCC1)c1ccccc1 (single isomer, unassigned) [Example 468, N-(7-cyano-1-(1-methylcyclobutyl)-1H-benzo[d]imidazol-2-yl)-3-hydroxy-3-phenylbutanamide]
+ (1.2-2.9 (+))	CC1(Cn2c(NC(=O)CC(C)(O)c3ccccc3)nc3ccc(C#N)cc32)CC1 (single isomer, unassigned) [Example 471, N-(6-cyano-1-((1-methylcyclopropyl)methyl)-1H-benzo[d]imidazol-2-yl)-3-hydroxy-3-phenylbutanamide]
+ (1.2-2.9 (+))	CC(O)(CC(=O)Nc1nc2cc(F)c(C#N)cc2n1C1(C)CCC1)c1ccccc1F (single isomer, unassigned) [Example 478, N-(6-cyano-5-fluoro-1-(1-methylcyclobutyl)-1H-benzo[d]imidazol-2-yl)-3-(2-fluorophenyl)-3-hydroxybutanamide]
++ (3-3.9 (++))	CC(O)(CC(=O)Nc1nc2ccc(C#N)cc2n1CC(F)(F)F)c1ccccc1F (single isomer, unassigned) [Example 483, N-(6-cyano-1-(2,2,2-trifluoroethyl)-1H-benzo[d]imidazol-2-yl)-3-(2-fluorophenyl)-3-hydroxybutanamide]
+ (1.2-2.9 (+))	CC(C)(C)CC(=O)Nc1nc2ccc(C(C)(C)O)cc2n1C1CC(F)(F)C1 [Example 332, N-(1-(3,3-difluorocyclobutyl)-6-(2-hydroxypropan-2-yl)-1H-benzo[d]imidazol-2-yl)-3,3-dimethylbutanamide]
++ (3-3.9 (++))	CC(C)(CC(=O)Nc1nc2ccc(C#N)cc2n1C(C)(C)C(F)(F)F)C1CC1 [Example 333, N-(6-cyano-1-(1,1,1-trifluoro-2-methylpropan-2-yl)-1H-benzo[d]imidazol-2-yl)-3-cyclopropyl-3-methylbutanamide]
++ (3-3.9 (++))	CC(C)(C)CC(=O)Nc1nc2ccc(OCC(F)(F)F)c(F)c2n1C1CCC1 [Example 334, N-(1-cyclobutyl-7-fluoro-6-(2,2,2-trifluoroethoxy)-1H-benzo[d]imidazol-2-yl)-3,3-dimethylbutanamide]
+ (1.2-2.9 (+))	C[C@H](CC(=O)Nc1nc2ccc(C(C)(C)O)cc2n1C1CCC1)c1ccccc1 [Example 336, (R)-N-(1-cyclobutyl-6-(2-hydroxypropan-2-yl)-1H-benzo[d]imidazol-2-yl)-3-phenylbutanamide]
++ (3-3.9 (++))	CC(C)(C)CC(=O)Nc1nc2ccc(C#N)cc2n1C1(C)CCC1 [Example 337, N-(6-cyano-1-(1-methylcyclobutyl)-1H-benzo[d]imidazol-2-yl)-3,3-dimethylbutanamide]

Structure (SMILES)	Kv7.2/7.3 Activity: increase over baseline in current
CN(C)c1ccc2nc(NC(=O)CC(C)(O)c3ccccc3)n(C3CCC3)c2c1F (single isomer, unassigned) [Example 485, N-(1-cyclobutyl-6-(dimethylamino)-7-fluoro-1H-benzo[d]imidazol-2-yl)-3-hydroxy-3-phenylbutanamide]	+++ (>4 (+++) fold increase over baseline)
CC(C)(C)CC(=O)Nc1nc2c(F)cc(OC(F)F)cc2n1C1CCC1 [Example 331, N-(1-cyclobutyl-6-(difluoromethoxy)-4-fluoro-1H-benzo[d]imidazol-2-yl)-3,3-dimethylbutanamide]	+++ (>4 (+++) fold increase over baseline)
CC(C)(CC(=O)Nc1nc2c(F)cc(OC(F)F)cc2n1C1(C)CCC1)C1CC1 [Example 338, 3-cyclopropyl-N-(6-(difluoromethoxy)-4-fluoro-1-(1-methylcyclobutyl)-1H-benzo[d]imidazol-2-yl)-3-methylbutanamide]	+++ (>4 (+++) fold increase over baseline)
